{"source": "patent US20220125841A1", "about": "“SODIUM F[…] A REVERSAL AGENT FOR AN ANTI-F[…] T CELLS AND FLUORESCEIN-PHOSPHOLIPID-ETHERS OR PROFLUORESCEIN-PHOSPHOLIPID-ETHERS” (Seattle Children's Hospital (dba Seattle Children'a …, priority 2019, published 2022)", "key": {"antiFL(Mut2) CAR T cells [1]": {"system": "antiFL(Mut2) CAR T cells", "experiment": "In vivo intravenous use of NaFL to reverse cytokine toxicity by antiFL CAR T cells (Example 4)", "design": "species or system mice", "method": "Group A—control (5 mice): MDA-MB-231 tumor+antiFL(Mut2) CAR T cells.\nGroup B—FL-PLE without NaFL (5 mice): MDA-MB-231 tumor+antiFL(Mut2) CAR T cells+1 mg IV FL-PLE.\nGroup C—FL-PLE and NaFL (5 mice): MDA-MB-231 tumor+antiFL(Mut2) CAR T cells+1 mg IV FL-PLE+0.5 mg IV NaFL (as needed).\nGroup D—No tumor control (3 mice): antiFL(Mut2) CAR T cells+1 mg IV FL-PLE+0.5 mg IV NaFL (as needed).\nMice receiving FL-PLE (Groups B, C, and D) were administered FL-PLE IV first. AntiFL(Mut2) CAR T cells were subsequently administered in all mice 2 days following FL-PLE administration. […] Reduction of cytokine toxicity symptoms in mice of Groups C and D was observed within 15 minutes after administration of NaFL."}, "[2]": {"system": "antiFL(FITC-E2) CAR T cells", "experiment": "MDA-MB-231 xenograft mouse model: monitoring of cytokine release syndrome (CRS) and cytotoxicity", "type": "in vivo, mice", "description": "FIG. 2B depicts levels of cytokine release syndrome (CRS) and cytotoxicity in an MDA-MB-231 adenocarcinoma tumor xenograft mouse model over time. FIG. 2B (lower panel) is an enlargement of an area of FIG. 2B (upper panel).\nAfter an adenocarcinoma (MDA-MB-231) tumor was established in 2 groups of mice by subcutaneous injection (2 tumors per mouse in opposite flanks), the mice received an intravenous injection of antiFL(FITC-E2) CART cells on day 6. The control group (no drug) only received the antiFL(FITC-E2) CAR T cells and the tumor progressed as normal. […] The mice were monitored for cytokine release syndrome (CRS) and cytotoxicity on a scale ranging from 1 (healthy) to 5 (dead) (FIG. 2B). On day 17, the intratumoral dose of FL-PLE was increased to 2 μg per tumor. On day 18, the mice had levels of CRS/toxicity between 3 and 4 at which point they received a dose of 0.56 mg of NaFL via an intravenous injection. […] After this, all doses of FL-PLE were administered at 1 μg per tumor."}, "[3]": {"system": "antiFL(FITC-E2) CAR T cells", "experiment": "Chromium release assay and cytokine release assay, antiFL(FITC-E2) CAR T cells with FL-PLE-loaded K562 target cells", "type": "cell-based", "settings": "50 μM NaFL; K562 target cells with 5 μM FL-PLE", "method": "FIG. 1B depicts a chromium release assay for effector T cells (CD8+ Mock or CD8+ antiFL(FITC-E2) CAR(Lg) T cells) mixed at various ratios with target cells (effector:target, E:T). The target cells are K562 control, K562 OKT3+, and K562 with 5 μM FL-PLE. One CD8+ antiFL(FITC-E2) population was exposed to 50 μM NaFL.\nFIG. 1C depicts a cytokine release assay for helper cells (CD4+ Mock or CD4+ antiFL(FITC-E2) CAR(Lg) T cells) and effector T cells (CD8+ Mock or CD8+ antiFL(FITC-E2) CAR(Lg) T cells) mixed with target cells. The target cells are K562 control, K562 OKT3+, and K562 with 5 μM FL-PLE. One CD4+ and CD8+ antiFL(FITC-E2) population was exposed to 50 μM NaFL.\nK562 (leukemia) cells were incubated with FL-PLE overnight. Cell integration of FL-PLE was analyzed by flow cytometry (FIG. 1A). There was a clear shift from the control K562 parental with the K562 parental incubated with 5 μM FL-PLE. This slight shift corresponded to a difference in the amount of FL exposed on the surface of the cell for CAR T cell recognition. These cells were used in a chromium release assay (FIG. 1B) and a cytokine release assay (FIG. 1C) to test whether the activation of CD8+ and CD4+ antiFL(FITC-E2) CAR T cells through FL-PLE integrated into K562 cells could be stopped in the presence of sodium fluorescein (NaFL). […]"}, "antiFL(Mut2) CAR T cells [4]": {"system": "antiFL(Mut2) CAR T cells", "experiment": "Cytokine release assay with dose titration of NaFL (Example 3)", "type": "cell-based", "method": "FIG. 3D depicts a cytokine release assay measuring IL-2 using the effector cells generated in FIG. 3A-B, target cells tested in FIG. 3C, and a dose titration of NaFL (0, 1, 5, or 10 μM).\nFIG. 3E depicts a cytokine release assay measuring IFN-γ using the effector cells generated in FIG. 3A-B, target cells tested in FIG. 3C, and a dose titration of NaFL (0, 1, 5, or 10 μM).\nFIG. 3F depicts a cytokine release assay measuring TNF-α using the effector cells generated in FIG. 3A-B, target cells tested in FIG. 3C, and a dose titration of NaFL (0, 1, 5, or 10 μM).\nCD4+ and CD8+ T cells from peripheral blood mononuclear cell preparations from two donors were lentivirally transduced to express long CAR cassettes comprising the antiFL(Mut2) CAR. The CAR cassette also contains the gene for a double mutant dihydrofolate reductase that allows for methotrexate positive selection to enrich for transduced CAR-expressing cells as well as the gene for the truncated CD19 (CD19t) surface marker that denotes CAR positivity. The selected cells are then subjected to a standard rapid expansion protocol using irradiated TM-LCL and PBMC feeder cells. After 14 days of expansion, cells were stained with anti-CD4, anti-CD8, and anti-CD19 antibodies as well as a live-dead stain to characterize surface phenotypes by flow cytometry. Flow plots for the CD4 and CD8 populations (FIG. 3A) and CAR positivity (FIG. 3B) are shown for mock and antiFL(Mut2) CAR T cells for both donors. These are the effector cells to be used in subsequent experiments.\nA cytokine release assay was set up to examine how a dose titration of NaFL (0, 1, 5, and 10 μM) affects the activation of antiFL CAR T cells. The CAR T cells are the antiFL(Mut2) CAR T cells generated in this example. Target cells were incubated with FL-PLE/NaFL for 24 hours or overnight. The media supernatant from target cell cultures were harvested and constituent cytokines were measured (e.g. with a Bio-Plex Human Cytokine Screening Panel). The cytokines IL-2 (FIG. 3D), IFN-γ (FIG. 3E), and TNF-α (FIG. 3F) were measured."}}, "data": [{"smiles": "O=C([O-])c1ccccc1-c1c2ccc(=O)cc-2oc2cc([O-])ccc12.[Na+].[Na+]", "note": "[NaFL, sodium fluorescein]", "values": [{"measurement": "Tolerability in vivo", "setting": "antiFL(Mut2) CAR T cells [1]; 0.5 mg IV NaFL, mice", "value": "well tolerated"}, {"measurement": "Time to reduction of cytokine toxicity symptoms after administration of NaFL", "setting": "antiFL(Mut2) CAR T cells [1]; Groups C and D, 0.5 mg IV NaFL", "value": "≤ 15", "unit": "min"}, {"measurement": "Cytokine levels after NaFL", "setting": "antiFL(Mut2) CAR T cells [1]; Groups C and D, 2 days following first administration of NaFL, optionally with additional IV injections", "value": "comparable to baseline"}, {"measurement": "Time for cytotoxicity level to return to roughly baseline levels after NaFL", "setting": "[2]; 0.56 mg NaFL intravenous injection on day 18", "value": "≤ 12", "unit": "h"}, {"measurement": "Cytotoxicity level after NaFL", "setting": "[2]; 0.56 mg NaFL intravenous injection on day 18 at CRS/toxicity level 3 to 4", "value": "Within minutes, the cytotoxicity level had dropped"}, {"measurement": "Effect of NaFL on recognition and activation of antiFL(FITC-E2) CAR T cells", "setting": "[3]", "value": "able to stop the recognition and activation"}, {"measurement": "Amount of activation of antiFL(Mut2) CAR T cells (IL-2, IFN-γ, TNF-α) versus amount of NaFL", "setting": "antiFL(Mut2) CAR T cells [4]; NaFL 0, 1, 5, and 10 μM, all three cytokines, both donor T cells", "value": "decreased by the amount of NaFL present in the solution in a linear fashion"}, {"measurement": "Effect of NaFL on IL-2 release by antiFL(Mut2) CAR T cells", "setting": "antiFL(Mut2) CAR T cells [4]; NaFL 0, 1, 5, or 10 μM, FIG. 3D", "value": "dose dependent"}, {"measurement": "Effect of NaFL on IFN-γ release by antiFL(Mut2) CAR T cells", "setting": "antiFL(Mut2) CAR T cells [4]; NaFL 0, 1, 5, or 10 μM, FIG. 3E", "value": "dose dependent"}, {"measurement": "Effect of NaFL on TNF-α release by antiFL(Mut2) CAR T cells", "setting": "antiFL(Mut2) CAR T cells [4]; NaFL 0, 1, 5, or 10 μM, FIG. 3F", "value": "dose dependent"}]}]}
